Legend:
Zea mays = test: Post-emergence glyphosate tolerance of dgt-28 transformed T0 corn; format: in vivo
Protocol: Herbicide Tolerance in dgt-28 Transformed Corn. Zea mays dgt-28 transformation events (T0) were allowed to acclimate in the greenhouse and were grown until plants had transitioned from tissue culture to greenhouse growing conditions (i.e., 2-4 new, normal looking leaves had emerged from the whorl). Plants were grown at 27° C. under 16 hour light: 8 hour dark conditions in the greenhouse. The plants were then treated with commercial formulations of DURANGO DMA™ (containing the herbicide glyphosate) with the addition of 2% w/v ammonium-sulfate. Herbicide applications were made with a track sprayer at a spray volume of 187 L/ha, 50-cm spray height. T0 plants were sprayed with a range of glyphosate from 280-4480 g ae/ha glyphosate, which is capable of significant injury to untransformed corn lines. A lethal dose is defined as the rate that causes >95% injury to the B104 inbred.
Post-Emergence Herbicide Tolerance in dgt-28 Transformed T0 Corn. T0 events of dgt-28 linked with TraP4, TraP5, TraP8 and TraP23 were generated by Agrobacterium transformation and were allowed to acclimate under controlled growth chamber conditions until 2-4 new, normal looking leaves had emerged from the whorl. Plants were assigned individual identification numbers and sampled for copy number analyses of both dgt-28 and aad-1. Based on copy number analyses, plants were selected for protein expression analyses. […]

[1] = tested on: tobacco (cv. Petit Havana); test: Postemergence glyphosate tolerance of dgt-28 transformed T1 and T2 tobacco; format: in vivo; settings: 14 DAT, 2240 g ae/ha glyphosate (DURANGO DMA)
Source text: Postemergence herbicide tolerance in dgt-28 transformed T1 tobacco. T1 resistant plants from each event used in the progeny testing were given unique identifiers and sampled for zygosity analyses of the dgt-28 gene. Zygosity data were used to assign 2 hemizygous and 2 homozygous replicates to each rate of glyphosate applied allowing for a total of 4 replicates per treatment. These plants were compared against wildtype Petite havana tobacco. All plants were sprayed with a track sprayer set at 187 L/ha. The plants were sprayed from a range of 560-4480 g ae/ha DURANGO DMA™. All applications were formulated in water with the addition of 2% w/v ammonium sulfate (AMS). Plants were evaluated at 7 and 14 days after treatment. Plants were assigned an injury rating with respect to overall visual stunting, chlorosis, and necrosis. The T1 generation is segregating, so some variable response is expected due to difference in zygosity.
Rates of DURANGO DMA™ ranging from 420-3360 g ae/ha glyphosate were applied to 2-3 leaf tobacco as previously described.

Molecule	Glyphosate rate that controlled non-transformed plants (Zea mays) [g ae/ha]	% Injury Ave [1] [%]
O=C(O)CNCP(=O)(O)O [glyphosate]	≥ 280	
TraP23: chloroplast transit peptide TraP23 v2, SEQ ID NO:39 (protein, Chloroplast Transit Peptide) MAQINKSANGVRNASLISNFSNTRQAKSPFSLSCGTRLKNSSRGLKKVAVRLIGSRVKVSAS		9.5
